According to publication PMC10857328, “Utilization of Biopolymer-Based Lutein Emulsion as an Effective Delivery System to Improve Lutein Bioavailability in Neonatal Rats” (Nutrients, 2024):

Legend:
[1] = Acute dosing study: tissue lutein profiles; type: in vivo, neonatal Sprague-Dawley rats; settings: single oral dose, 10 mg/kg, free lutein or emulsion
Procedure: To determine the bioavailability of lutein in neonatal Sprague-Dawley rats, an acute dosing study was conducted. The procedure was approved by the Institutional Animal Care and Use Committee of the University of Alabama (Number: 21-08-4864, 23 September 2021). On postnatal day 10 (P10), neonatal rats were randomly selected from litters and received a single dose of either free lutein (i.e., lutein ester dissolved in olive oil) or lutein emulsion, both containing 10 mg/kg body weight of lutein. The dose was administered to the pup’s mouth via a pipette. The concentration of lutein ester in the oil phase was 0.004 g/mL. The lutein dosage was selected based on our pilot study and previous studies. It is higher than the dosage used in human newborns but is considered acceptable and safe to be used in pharmacokinetic studies in rodent models. At 0.5 h, 1 h, 2 h, 4 h, 6 h, 12 h, and 24 h after dosing, pups (n = 3/time point/group) were euthanized, and blood, liver, spleen, brain, and eye were collected. Serum was obtained by centrifuging blood samples and tissues were stored at −80 °C until time of analysis. A group of rat pups (n = 3) not receiving treatments were used to measure the baseline lutein concentrations. Throughout the study, maternal rats consumed a purified diet with no lutein (D19120501, Research Diets Inc, New Brunswick, NJ, USA) (Table 1).
Serum and tissue lutein concentration was determined using an ultra-performance liquid chromatography (UPLC) system (Waters, Milford, MA, USA) equipped with a photo-diode array detector (PDA)/MS/MS, according to our well-established methods with slight modification. As for the serum, 100 μL of the sample was incubated with 2 mL of 100% ethanol at room temperature for an hour for lipid extraction. For the tissues, ~0.1 g of the sample was weighed, homogenized, and incubated with 2 mL of 100% ethanol at room temperature for an hour. An amount of 1 mL of 5% (w/v) potassium hydroxide was added to the sample and incubated in a water bath at 60 °C for 45 min for saponification. […]

[2] = Daily dosing studies: body and tissue weights, observable illness; type: in vivo, neonatal Sprague-Dawley rats; settings: daily oral administration, 2 mg/kg, P5-P18, both daily dosing studies
Procedure: To determine the effects of daily consumption of CTA-stabilized lutein emulsion on tissue lutein status, two daily dosing studies were conducted. The procedures were approved by the Institutional Animal Care and Use Committee of the University of Alabama (Number: 21-02-4373, 4 February 2021). For daily dosing study 1 (Figure 1B), on P5, rat pups (n = 8–9/group) were randomly selected from the litters and received an oral dose of either free lutein (i.e., lutein ester dissolved in olive oil) or lutein emulsion both containing 2 mg/kg body weight of lutein. […] Dosing was repeated daily until P18. The dosage was determined from previous research in both rodent and human newborns and was also established as an Acceptable Daily Intake for lutein by the Joint Food and Agricultural Organization/World Health Organization. On P19, pups were euthanized. Rats are known to wean between P19 and P21 [47]. Blood from vena cava, liver, spleen, brain, eye, kidney, lung, white adipose tissue (WAT), and brown adipose tissue (BAT) were collected. Blood samples were centrifuged to obtain serum. Serum and collected tissues were frozen at −80 °C until analysis.
To mimic the human dietary intake of lutein, daily dosing study 2 was conducted (Figure 1C). […]

Earliest time point for lutein to be detectable in brain [1]: 12 h | Earliest time point for lutein to be detectable in eye [1]: 24 h | Earliest time point for lutein to be detectable in spleen [1]: 6 h | Observable illness in the pups [2]: no observable illness
Structure (SMILES): CC1=C[C@H](O)CC(C)(C)[C@H]1/C=C/C(C)=C/C=C/C(C)=C/C=C/C=C(C)/C=C/C=C(C)/C=C/C1=C(C)C[C@@H](O)CC1(C)C [lutein, Lutein]
